# Source: the supplement of paper PMC10307832
# How the values were obtained:
# Assay in all cases: relative viability (nuclei count vs DMSO), 5 days (fraction); higher = more cells survive
# [1] = test system: 201T
# Summary of the method: (§1)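 Lung cancer cell lines were seeded in 1536-well plates and dosed by pin tool the next day, with either a single drug or a fixed anchor-drug dose combined with five library-drug doses (not always all listed) spaced in √10 steps. Five days later, one step fixed the cells and stained their nuclei (final 0.05% Triton X-100, 1% formaldehyde, 1 ug/ml Hoechst), and nuclei were counted on 4× images. Relative viability is the nuclei count in treated wells divided by the count in vehicle wells, and each value is the median of duplicate plates.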
# [2] = test system: A-427
# Summary of the method: as §1
# [3] = test system: BEN
# Summary of the method: as §1
# [4] = test system: COR-L 105
# Summary of the method: as §1
# [5] = test system: COR-L23
# Summary of the method: as §1
# [6] = test system: EKVX
# Summary of the method: as §1
# [7] = test system: HARA
# Summary of the method: as §1
# [8] = test system: HCC-15
# Summary of the method: as §1
# [9] = test system: HCC-44
# Summary of the method: as §1
# [10] = test system: HCC-827
# Summary of the method: as §1
# [11] = test system: LK-2
# Summary of the method: as §1
# [12] = test system: NCI-H1437
# Summary of the method: as §1
# [13] = test system: NCI-H1666
# Summary of the method: as §1
# [14] = test system: NCI-H1792
# Summary of the method: as §1
# [15] = test system: NCI-H1975
# Summary of the method: as §1
# [16] = test system: NCI-H23
# Summary of the method: as §1
# [17] = test system: NCI-H358
# Summary of the method: as §1
# [18] = test system: NCI-H596
# Summary of the method: as §1
# [19] = test system: NCI-H650
# Summary of the method: as §1
# [20] = test system: NCI-H838
# Summary of the method: as §1
# [21] = test system: SK-MES-1
# Summary of the method: as §1
smiles,measurement,setting,value
O=C(O)c1ccc(-c2c[nH]c3ncc(-c4ccccc4)cc23)cc1C1CCCC1 + CS(=O)(=O)CCNCc1ccc(-c2ccc3ncnc(Nc4ccc(OCc5cccc(F)c5)c(Cl)c4)c3c2)o1 [Lapatinib] (partner 2 µM),relative viability,[1]; first compound 0.04 µM,0.966
same,relative viability,[1]; first compound 0.1265 µM,1.06
same,relative viability,[1]; first compound 0.4 µM,1.01
same,relative viability,[1]; first compound 1.265 µM,0.988
same,relative viability,[2]; first compound 0.04 µM,0.965
same,relative viability,[2]; first compound 0.1265 µM,1.06
same,relative viability,[2]; first compound 0.4 µM,0.986
same,relative viability,[2]; first compound 1.265 µM,0.935
same,relative viability,[3]; first compound 0.04 µM,0.717
same,relative viability,[3]; first compound 0.1265 µM,0.611
same,relative viability,[3]; first compound 0.4 µM,0.815
same,relative viability,[3]; first compound 1.265 µM,0.666
same,relative viability,[4]; first compound 0.04 µM,0.363
same,relative viability,[4]; first compound 0.1265 µM,0.401
same,relative viability,[4]; first compound 0.4 µM,0.347
same,relative viability,[4]; first compound 1.265 µM,0.371
same,relative viability,[5]; first compound 0.04 µM,0.89
same,relative viability,[5]; first compound 0.1265 µM,1.09
same,relative viability,[5]; first compound 0.4 µM,1.01
same,relative viability,[5]; first compound 1.265 µM,0.654
same,relative viability,[6]; first compound 0.04 µM,0.218
same,relative viability,[6]; first compound 0.1265 µM,0.216
same,relative viability,[6]; first compound 0.4 µM,0.212
same,relative viability,[6]; first compound 1.265 µM,0.187
same,relative viability,[7]; first compound 0.04 µM,0.578
same,relative viability,[7]; first compound 0.1265 µM,0.925
same,relative viability,[7]; first compound 0.4 µM,0.802
same,relative viability,[7]; first compound 1.265 µM,0.716
same,relative viability,[8]; first compound 0.04 µM,0.882
same,relative viability,[8]; first compound 0.1265 µM,0.987
same,relative viability,[8]; first compound 0.4 µM,0.838
same,relative viability,[8]; first compound 1.265 µM,0.551
same,relative viability,[9]; first compound 0.04 µM,0.959
same,relative viability,[9]; first compound 0.1265 µM,1.02
same,relative viability,[9]; first compound 0.4 µM,1.1
same,relative viability,[9]; first compound 1.265 µM,0.913
same,relative viability,[10]; first compound 0.04 µM,0.209
same,relative viability,[10]; first compound 0.1265 µM,0.196
same,relative viability,[10]; first compound 0.4 µM,0.189
same,relative viability,[10]; first compound 1.265 µM,0.195
same,relative viability,[11]; first compound 0.04 µM,0.968
same,relative viability,[11]; first compound 0.1265 µM,0.902
same,relative viability,[11]; first compound 0.4 µM,0.744
same,relative viability,[11]; first compound 1.265 µM,0.934
same,relative viability,[12]; first compound 0.04 µM,0.794
same,relative viability,[12]; first compound 0.1265 µM,0.823
same,relative viability,[12]; first compound 0.4 µM,0.765
same,relative viability,[12]; first compound 1.265 µM,0.338
same,relative viability,[13]; first compound 0.04 µM,0.673
same,relative viability,[13]; first compound 0.1265 µM,0.522
same,relative viability,[13]; first compound 0.4 µM,0.796
same,relative viability,[13]; first compound 1.265 µM,0.344
same,relative viability,[14]; first compound 0.04 µM,0.77
same,relative viability,[14]; first compound 0.1265 µM,0.942
same,relative viability,[14]; first compound 0.4 µM,0.953
same,relative viability,[14]; first compound 1.265 µM,0.847
same,relative viability,[15]; first compound 0.04 µM,0.873
same,relative viability,[15]; first compound 0.1265 µM,1.02
same,relative viability,[15]; first compound 0.4 µM,1
same,relative viability,[15]; first compound 1.265 µM,0.49
same,relative viability,[16]; first compound 0.04 µM,1.12
same,relative viability,[16]; first compound 0.1265 µM,0.894
same,relative viability,[16]; first compound 0.4 µM,0.919
same,relative viability,[16]; first compound 1.265 µM,0.752
same,relative viability,[17]; first compound 0.04 µM,0.438
same,relative viability,[17]; first compound 0.1265 µM,0.447
same,relative viability,[17]; first compound 0.4 µM,0.448
same,relative viability,[17]; first compound 1.265 µM,0.323
same,relative viability,[18]; first compound 0.04 µM,1.1
same,relative viability,[18]; first compound 0.1265 µM,1.02
same,relative viability,[18]; first compound 0.4 µM,0.979
same,relative viability,[18]; first compound 1.265 µM,1.03
same,relative viability,[19]; first compound 0.04 µM,0.712
same,relative viability,[19]; first compound 0.1265 µM,1.26
same,relative viability,[19]; first compound 0.4 µM,0.639
same,relative viability,[19]; first compound 1.265 µM,0.561
same,relative viability,[20]; first compound 0.04 µM,0.92
same,relative viability,[20]; first compound 0.1265 µM,1.4
same,relative viability,[20]; first compound 0.4 µM,1.11
same,relative viability,[20]; first compound 1.265 µM,0.915
same,relative viability,[21]; first compound 0.04 µM,0.443
same,relative viability,[21]; first compound 0.1265 µM,0.495
same,relative viability,[21]; first compound 0.4 µM,0.464
same,relative viability,[21]; first compound 1.265 µM,0.412
